Data: US10676721B2, “Bacteriophages expressing antimicrobial peptides and uses thereof” (priority 2009, dated 2020)
Peptide text beside a SMILES is read from it.

Tests used:
[1] = Toxicity of AMPs (Table 3, method not described); set-up: unit not given here; settings: two values per AMP
[2] = system: Staph aureus; assay: Staph aureus growth in sterile media isolated 6 hours after M13 infection of EMG2 (FIG. 30); format: cell-based, Staphylococcus aureus; settings: no phage control 1.6
Description: The inventors isolated the media in which the antimicrobial agents were released. The inventors next infected a growing mid-log culture of EMG2 with the different wild-type and engineered M13 phage. At 6 hours post infection, the EMG2 cells were centrifuged at 13,000 g and filtered through a 0.2 um membrane to collect sterile media with the released AmP and enzyme. The media was replenished in nutrients by adding 5× concentrated LB solution. Mid-log Staph bacteria where then inoculated in the media at a concentration of 10^5 CFU/ml.
For example, the “no phage” or the “m13 mp 18” staph culture reach an OD of 0.8 within 4 hours whereas the “M13.pTRC.Omp.PonW3” media containing PonW3 (SEQ ID NO: 40) causes a growth delay by another 4 hours, the culture reaches the same OD of 0.8 only after 8 hours of growth. Finally, release of CHAP165 in the surrounding media due to phage reengineering limited staph growth to an OD level of 0.8 while compared to 1.6 for the no phage control and 1.2 for the wild M13mp18.

[3] = system: antibiotic-resistant staphylococci; settings: cited from earlier work
[4] = system: S. aureus; settings: CHAP165, from ROSS 2009; cited from earlier work
[5] = system: E. coli strain that expresses capsular polysaccharide K; assay: Mixed culture of E. coli host strain and E. coli strain expressing capsular polysaccharide K; format: cell-based, Escherichia coli
Source text: The expression of the genomic payload of lytic peptides and proteins increases the utility of the engineered bacteriophage to treat heterologous infections.

[6] = system: Staphylococcus aureus; assay: Co-culture of E. coli with Staphylococcus aureus; format: cell-based

| Molecule | Toxicity [1] | other results |
| --- | --- | --- |
| CC(C)C[C@H](NC(=O)[C@H](CC(C)C)NC(=O)[C@H](Cc1ccccc1)NC(=O)[C@H](CC(C)C)NC(=O)[C@H](CC(C)C)NC(=O)[C@@H](N)CC(C)C)C(=O)N[C@@H](CCCCN)C(=O)N[C@@H](CCCCN)C(=O)N[C@@H](CCCNC(=N)N)C(=O)N[C@@H](CCCCN)C(=O)N[C@@H](CCCCN)C(=O)N[C@@H](CCCNC(=N)N)C(=O)N[C@@H](CCCCN)C(=O)N[C@@H](Cc1ccc(O)cc1)C(=O)O [J589_D1] (H-LLLFLLKKRKKRKY-OH) | 512 | – |
| CC[C@H](C)[C@H](NC(=O)CNC(=O)[C@H](CCCNC(=N)N)NC(=O)[C@H](Cc1ccccc1)NC(=O)[C@@H](NC(=O)[C@H](Cc1c[nH]cn1)NC(=O)[C@H](Cc1c[nH]cn1)NC(=O)[C@H](Cc1ccccc1)NC(=O)[C@@H](N)Cc1ccccc1)[C@@H](C)CC)C(=O)N[C@H](C(=O)N[C@@H](Cc1c[nH]cn1)C(=O)N[C@H](C(=O)NCC(=O)N[C@@H](CCCCN)C(=O)N[C@H](C(=O)N[C@H](C(=O)N[C@@H](Cc1c[nH]cn1)C(=O)N[C@@H](CCCCN)C(=O)N[C@@H](CC(C)C)C(=O)N[C@H](C(=O)N[C@H](C(=O)NCC(=O)O)[C@@H](C)O)C(C)C)[C@@H](C)CC)[C@@H](C)O)C(C)C)C(C)C [J589_H3] (H-FFHHIFRGIVHVGKTIHKLVTG-OH) | 128 | – |
| CC[C@H](C)[C@H](NC(=O)[C@H](CCCCN)NC(=O)[C@H](CC(C)C)NC(=O)[C@H](C)NC(=O)[C@H](CO)NC(=O)CNC(=O)[C@H](CC(C)C)NC(=O)[C@@H](N)Cc1c[nH]c2ccccc12)C(=O)NCC(=O)N[C@@H](C)C(=O)N[C@@H](CCCCN)C(=O)N[C@@H](CC(C)C)C(=O)N[C@@H](CC(C)C)C(=O)N1CCC[C@H]1C(=O)N[C@@H](CO)C(=O)N[C@H](C(=O)N[C@H](C(=O)NCC(=O)N[C@@H](CC(C)C)C(=O)N[C@@H](Cc1ccccc1)C(=O)N[C@@H](CCC(N)=O)C(=O)N[C@@H](CCCCN)C(=O)N[C@@H](CCCCN)C(=O)N[C@@H](CCCCN)C(=O)N[C@@H](CCCCN)C(=O)O)C(C)C)C(C)C [J589_J5] (H-WLGSALKIGAKLLPSVVGLFQKKKK-OH) | 32 | – |
| CC[C@H](C)[C@H](NC(=O)[C@H](C)NC(=O)[C@H](CCCCN)NC(=O)CNC(=O)[C@H](C)NC(=O)[C@H](Cc1c[nH]cn1)NC(=O)[C@@H](NC(=O)[C@H](C)NC(=O)CNC(=O)[C@H](CCCCN)NC(=O)[C@@H](NC(=O)[C@H](CC(C)C)NC(=O)[C@H](Cc1c[nH]c2ccccc12)NC(=O)CNC(=O)[C@H](Cc1ccccc1)NC(=O)[C@@H](N)Cc1ccccc1)[C@@H](C)CC)[C@@H](C)CC)C(=O)N[C@@H](Cc1c[nH]cn1)C(=O)NCC(=O)N[C@@H](CC(C)C)C(=O)N[C@H](C(=O)N[C@@H](Cc1c[nH]cn1)C(=O)N[C@@H](CCCNC(=N)N)C(=O)N[C@@H](CCCNC(=N)N)C(=O)N[C@@H](CCCNC(=N)N)C(=O)N[C@@H](Cc1c[nH]cn1)C(=O)O)[C@@H](C)CC [J589_J6] (H-FFGWLIKGAIHAGKAIHGLIHRRRH-OH) | 16 | – |
| CC[C@H](C)[C@H](NC(=O)CN)C(=O)N[C@@H](Cc1c[nH]c2ccccc12)C(=O)NCC(=O)N[C@H](C(=O)N[C@@H](CC(C)C)C(=O)N[C@@H](C)C(=O)N[C@@H](CCCCN)C(=O)N[C@H](C(=O)NCC(=O)N[C@H](C(=O)N[C@@H](CCCCN)C(=O)N[C@@H](C)C(=O)N[C@H](C(=O)N1CCC[C@H]1C(=O)N[C@@H](CCCNC(=N)N)C(=O)N[C@H](C(=O)N[C@H](C(=O)N[C@@H](CO)C(=O)N[C@@H](CCSC)C(=O)N[C@@H](CC(C)C)C(=O)N[C@@H](CCCCN)C(=O)N[C@@H](CCCCN)C(=O)N[C@@H](CCCCN)C(=O)N[C@@H](CCCCN)C(=O)N[C@@H](CCC(N)=O)C(=O)O)[C@@H](C)CC)C(C)C)C(C)C)[C@@H](C)CC)[C@@H](C)CC)[C@@H](C)O [J589_K4, Ponericin W3] (H-GIWGTLAKIGIKAVPRVISMLKKKKQ-OH) | 64 | – |
| CC[C@H](C)[C@H](NC(=O)[C@H](CCCCN)NC(=O)[C@H](CCCCN)NC(=O)[C@H](Cc1ccccc1)NC(=O)[C@H](CC(C)C)NC(=O)[C@H](CCCCN)NC(=O)[C@H](Cc1c[nH]c2ccccc12)NC(=O)[C@@H](N)CCCCN)C(=O)N[C@@H](CC(C)C)C(=O)N[C@@H](CCCCN)C(=O)N[C@@H](Cc1ccccc1)C(=O)N[C@@H](CC(C)C)C(=O)N[C@@H](Cc1c[nH]cn1)C(=O)N[C@@H](CC(C)C)C(=O)N[C@@H](C)C(=O)N[C@@H](CCCCN)C(=O)N[C@@H](CCCCN)C(=O)N[C@@H](Cc1ccccc1)C(=O)O [J6084_F10] (H-KWKLFKKILKFLHLAKKF-OH) | 32 | – |
| CC[C@H](C)[C@H](NC(=O)[C@H](CC(C)C)NC(=O)[C@H](C)NC(=O)CNC(=O)[C@H](Cc1c[nH]c2ccccc12)NC(=O)[C@@H](N)Cc1ccccc1)C(=O)N[C@@H](CCCCN)C(=O)NCC(=O)N[C@@H](C)C(=O)N[C@@H](C)C(=O)N[C@@H](CCCCN)C(=O)N[C@@H](CC(C)C)C(=O)N[C@H](C(=O)N1CCC[C@H]1C(=O)N[C@@H](CO)C(=O)N[C@H](C(=O)N[C@H](C(=O)NCC(=O)N[C@@H](CC(C)C)C(=O)N[C@@H](Cc1ccccc1)C(=O)N[C@@H](CCCCN)C(=O)N[C@@H](CCCCN)C(=O)N[C@@H](CCCCN)C(=O)N[C@@H](CCC(N)=O)C(=O)O)C(C)C)C(C)C)[C@@H](C)CC [J6084_H2, Ponericin W5] (H-FWGALIKGAAKLIPSVVGLFKKKQ-OH) | 32 | – |
| CC[C@H](C)[C@H](NC(=O)[C@H](C)NC(=O)[C@@H]1CCCN1C(=O)CNC(=O)[C@H](C)NC(=O)[C@H](CCCCN)NC(=O)[C@@H](NC(=O)[C@H](CC(C)C)NC(=O)CNC(=O)[C@H](CC(=O)O)NC(=O)[C@H](CCCNC(=N)N)NC(=O)[C@@H](NC(=O)[C@H](CC(N)=O)NC(=O)[C@H](CCC(N)=O)NC(=O)CNC(=O)[C@@H](NC(=O)[C@H](CCCNC(=N)N)NC(=O)[C@H](CCC(=O)O)NC(=O)[C@@H](NC(=O)[C@H](CCCCN)NC(=O)[C@H](CCCCN)NC(=O)[C@H](Cc1ccccc1)NC(=O)[C@H](Cc1ccccc1)NC(=O)[C@H](CCCCN)NC(=O)[C@H](Cc1c[nH]c2ccccc12)NC(=O)[C@@H](N)CCCNC(=N)N)[C@@H](C)CC)C(C)C)C(C)C)[C@@H](C)CC)C(=O)N[C@@H](CCC(N)=O)C(=O)N[C@H](C(=O)N[C@@H](CC(C)C)C(=O)NCC(=O)N[C@@H](C)C(=O)N[C@@H](C)C(=O)N[C@@H](CCCCN)C(=O)N[C@@H](C)C(=O)N[C@@H](CC(C)C)C(=O)O)C(C)C [J6090_C11] (H-RWKFFKKIERVGQNVRDGLIKAGPAIQVLGAAKAL-OH) | 256 | – |
| CC[C@H](C)[C@H](NC(=O)[C@H](CCCCN)NC(=O)[C@H](CC(C)C)NC(=O)[C@H](C)NC(=O)[C@H](CO)NC(=O)CNC(=O)[C@H](CC(C)C)NC(=O)[C@@H](N)Cc1c[nH]c2ccccc12)C(=O)NCC(=O)N[C@@H](C)C(=O)N[C@@H](CCCCN)C(=O)N[C@@H](CC(C)C)C(=O)N[C@@H](CC(C)C)C(=O)N1CCC[C@H]1C(=O)N[C@@H](CO)C(=O)N[C@H](C(=O)N[C@H](C(=O)NCC(=O)N[C@@H](CC(C)C)C(=O)N[C@@H](Cc1ccccc1)C(=O)N[C@@H](CCCCN)C(=O)N[C@@H](CCCCN)C(=O)N[C@@H](CCCCN)C(=O)N[C@@H](CCCCN)C(=O)N[C@@H](CCC(N)=O)C(=O)O)C(C)C)C(C)C [J6123_D7, Ponericin W1] (H-WLGSALKIGAKLLPSVVGLFKKKKQ-OH) | 64 | – |
| CHAP165 (protein) AKTQAEINKRLDAYAKGTVDSPYRVKKATSYDPSFGVMEAGAIDADGYYHAQCQDLITDYVLWLTDNKVRTWGNAKDQIKQSYGTGFKIHENKPSTVPKKGWIAVFTSGSYEQWGHIGIVYDGGNTSTFTILEQNWNGYANKKPTKRVDNYYGLTHFIEIPVKA | – | OD level to which staph growth is limited [2]: 0.8; lytic activity compared with the natural LysK enzyme [3]: twice stronger lytic activity; MIC SA [4]: ~0.3 µg/mL; sterilization of the heterogeneous E. coli culture [5]: sterilize the heterogeneous E. coli culture completely; lysis of the E. coli strain that expresses capsular polysaccharide K ([5]; lysK165 expressed from engineered bacteriophage): able to lyse; lysis of the staphylococcal population [6]: able to complete lyse |
